Results on 31 molecules are retold here after patent publication US20090325964A1, “Piperazine Metabotropic Glutamate Receptor 5 (MGLUR5) Negative Allosteric Modulators For Anxiety/Depression” (Wyeth, priority 2008, published 2009).

What is called pKi is the Ki on a negative log10 scale, so that one unit is a factor of ten. One may read the pIC50 as −log10 of the IC50, conventionally taken in molar units. High values mean a low IC50, low ones a high IC50.

The target in one experiment is T1, rat mGluR5 receptor (Rattus norvegicus, UniProt P31424).
T1 construct: expressed in transfected cells; host or cells: HEK-293
In words: [3H]-MPEP displacement binding assay, HEK-293 cell membranes expressing rat mGluR5. The conditions noted are these: [3H]-MPEP displacement, read-out: Median Ki. The method in brief:
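Membranes from HEK-293 cells expressing rat mGluR5 (12-25 μg protein), incubated 60 min at room temperature with 4 nM [3H]-MPEP in 50 mM Tris pH 7.5, then filtered. Nonspecific binding defined with 10 μM MPEP.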

Experiment [1] concerns the target T2, mGluR5 (Rattus norvegicus, UniProt P31424). In words: IC50 column under 'Biological Activity' (assay not identified in the shown text; not the binding Ki).
For experiment [2], the target named is T2, mGluR5. Described as above. This is another data set of the same source.

pIC50, pKi: −log10 of the molar value. Where two headings read alike, the source gives them in different places.

T1 sequence (P31424 21-1203): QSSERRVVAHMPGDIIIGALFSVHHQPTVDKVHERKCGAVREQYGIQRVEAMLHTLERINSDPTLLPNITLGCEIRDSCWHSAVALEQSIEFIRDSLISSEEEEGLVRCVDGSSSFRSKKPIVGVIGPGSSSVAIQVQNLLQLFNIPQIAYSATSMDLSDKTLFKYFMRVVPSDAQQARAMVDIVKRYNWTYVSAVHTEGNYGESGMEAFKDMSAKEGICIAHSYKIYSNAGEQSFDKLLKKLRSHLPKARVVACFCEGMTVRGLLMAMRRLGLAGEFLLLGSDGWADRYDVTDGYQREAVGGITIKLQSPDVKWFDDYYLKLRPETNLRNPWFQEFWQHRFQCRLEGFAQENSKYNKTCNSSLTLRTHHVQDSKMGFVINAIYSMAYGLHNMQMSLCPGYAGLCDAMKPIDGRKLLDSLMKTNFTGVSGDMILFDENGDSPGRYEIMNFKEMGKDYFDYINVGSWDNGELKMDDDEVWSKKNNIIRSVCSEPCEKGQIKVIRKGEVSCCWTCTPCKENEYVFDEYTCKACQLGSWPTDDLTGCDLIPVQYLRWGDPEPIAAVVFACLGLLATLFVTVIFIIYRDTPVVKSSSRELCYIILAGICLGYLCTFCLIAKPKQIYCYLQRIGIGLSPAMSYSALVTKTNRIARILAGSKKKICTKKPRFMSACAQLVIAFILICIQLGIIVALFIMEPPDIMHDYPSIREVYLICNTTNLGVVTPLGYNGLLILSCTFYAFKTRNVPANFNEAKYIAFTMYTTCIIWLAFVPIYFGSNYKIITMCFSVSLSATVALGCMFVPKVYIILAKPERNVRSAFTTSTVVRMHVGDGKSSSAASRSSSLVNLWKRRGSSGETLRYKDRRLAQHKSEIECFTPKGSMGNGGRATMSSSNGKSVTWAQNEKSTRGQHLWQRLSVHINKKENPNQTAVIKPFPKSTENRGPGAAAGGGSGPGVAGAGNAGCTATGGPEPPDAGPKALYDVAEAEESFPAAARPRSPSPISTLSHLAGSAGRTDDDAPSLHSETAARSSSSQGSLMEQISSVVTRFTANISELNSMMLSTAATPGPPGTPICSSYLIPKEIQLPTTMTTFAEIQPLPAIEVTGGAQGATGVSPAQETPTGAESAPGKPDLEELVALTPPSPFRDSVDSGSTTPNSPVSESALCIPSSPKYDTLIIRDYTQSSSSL
T2 sequence (P31424 21-1203): as above

As to `O=C(c1ccc(C(F)(F)F)c(C#Cc2ccccn2)c1)N1CCN(c2ccccn2)CC1` [Compound 369, 1-pyridin-2-yl-4-{[3-(pyridin-2-ylethynyl)-4-(trifluoromethyl)phenyl]carbonyl}piperazine], at rat mGluR5 receptor (rat mGluR5 membranes), the pKi is 7.51. The molecule also gave a pIC50 at mGluR5 [1] of 7.52.

As for `O=C(c1ccc(Cl)c(C#Cc2ccccn2)c1)N1CCN(c2ccccn2)CC1` [Compound 386, 1-[4-chloro-3-(pyridin-2-ylethynyl)benzoyl]-4-pyridin-2-ylpiperazin], the negative logarithm of the Ki (pKi) on rat mGluR5 receptor (rat mGluR5 membranes) is 8.52. This molecule gave a negative logarithm of the IC50 (pIC50) on mGluR5 [1] of 7.41.

Regarding `O=C(c1ccc(Cl)c(C#Cc2ccccn2)c1)N1CCN(c2ccncc2)CC1` [Compound 391, 1-[4-chloro-3-(pyridin-2-ylethynyl)benzoyl]-4-pyridin-4-ylpiperazine], at rat mGluR5 receptor (rat mGluR5 membranes), the negative-log Ki (pKi) is 7.10. Moreover, the pIC50 at mGluR5 [1] was 5.83.

Consider `O=C(c1ccc(OC(F)F)c(C#Cc2ccccn2)c1)N1CCN(c2nsc3ccccc23)CC1` [Compound 383, 3-(4-{[4-(difluoromethoxy)-3-(pyridin-2-ylethynyl)phenyl]carbonyl}piperazin-1-yl)-1,2-benzisothiazole], for which the pKi at rat mGluR5 receptor (rat mGluR5 membranes) was 9.00. This molecule also showed a pIC50 on mGluR5 [1] of 7.39.

With `O=C(c1ccc(OC(F)F)c(C#Cc2ccccn2)c1)N1CCN(c2ccccn2)CC1` [Compound 385, 1-{[4-(Difluoromethoxy)-3-(pyridin-2-ylethynyl)phenyl]carbonyl}-4-pyridin-2-ylpiperazin], the negative-log Ki (pKi) at rat mGluR5 receptor (rat mGluR5 membranes) is 8.15. The pIC50 on mGluR5 [1] was 7.89.

Consider `O=C(c1ccc(C(F)(F)F)c(C#Cc2ccccn2)c1)N1CCN(C(=O)c2ccco2)CC1` [Compound 375, 1-(furan-2-ylcarbonyl)-4-{[3-(pyridin-2-ylethynyl)-4-(trifluoromethyl)phenyl]carbonyl}piperazine], for which, on rat mGluR5 receptor (rat mGluR5 membranes), the pKi was 7.54. At mGluR5 [1], this molecule showed a pIC50 of 7.40.

In the case of `N#Cc1cccnc1N1CCN(C(=O)c2ccc(Cl)c(C#Cc3ccccn3)c2)CC1` [Compound 389, 2-{4-[4-chloro-3-(pyridin-2-ylethynyl)benzoyl]piperazin-1-yl}nicotinonitrile], on rat mGluR5 receptor (rat mGluR5 membranes), the pKi was 7.20. The molecule further showed a pIC50 on mGluR5 [1] of 6.62.

For the molecule `O=C(c1ccc(Cl)c(C#Cc2ccccn2)c1)N1CCN(c2ncccn2)CC1` [Compound 387, 2-{4-[4-chloro-3-(pyridin-2-ylethynyl)benzoyl]piperazin-1-yl}pyrimidine], the pKi on rat mGluR5 receptor (rat mGluR5 membranes) is 8.00. On mGluR5 [1], this molecule gave a pIC50 of 6.88.

Take `O=C(c1ccc(C(F)(F)F)c(C#Cc2ccccn2)c1)N1CCN(c2noc3ccccc23)CC1` [Compound 374, 3-(4-{[3-(pyridin-2-ylethynyl)-4-(trifluoromethyl)phenyl]carbonyl}piperazin-1-yl)-1,2-benzisoxazole]: the pKi at rat mGluR5 receptor (rat mGluR5 membranes) is 8.40. At mGluR5 [1], this molecule had a pIC50 of 7.28.

On to `O=C(c1ccc(OC(F)F)c(C#Cc2ccccn2)c1)N1CCN(c2noc3ccccc23)CC1` [Compound 384, 3-(4-{[4-(difluoromethoxy)-3-(pyridin-2-ylethynyl)phenyl]carbonyl}piperazin-1-yl)-1,2-benzisoxazole], for which the pKi at rat mGluR5 receptor (rat mGluR5 membranes) is 9.00. In addition, on mGluR5 [1], the pIC50 is 7.80.

For `COc1ccc(C(=O)N2CCN(c3noc4ccccc34)CC2)cc1C#Cc1ccccn1` [Compound 251, 3-{4-[4-methoxy-3-(pyridin-2-ylethynyl)benzoyl]piperazin-1-yl}-1,2-benzisoxazole], the pKi at rat mGluR5 receptor (rat mGluR5) is 8.22. Besides, the pIC50 at mGluR5 [2] was 7.60.

On to `O=C(c1ccc(OC(F)(F)F)c(C#Cc2ccccn2)c1)N1CCN(c2noc3ccccc23)CC1` [Compound 338, 3-{4-[3-(pyridin-2-ylethynyl)-4-(trifluoromethoxy)benzoyl]piperazin-1-yl}-1,2-benzisoxazole], for which the pKi on rat mGluR5 receptor (rat mGluR5) was 9.00. Besides, the pIC50 on mGluR5 [2] is 7.80.

On to `COc1ccc(C(=O)N2CCN(S(=O)(=O)c3ccc4c(c3)OCCO4)CC2)cc1C#Cc1ccccn1` [Compound 235, 1-(2,3-dihydro-1,4-benzodioxin-6-ylsulfonyl)-4-[4-methoxy-3-(pyridin-2-ylethynyl)benzoyl]piperazine], for which the pKi on rat mGluR5 receptor (rat mGluR5) was 7.12. At mGluR5 [2], the pIC50 was < 6.00.

For the molecule `COc1ccc(C(=O)N2CCN(S(=O)(=O)c3ccc(C)cc3)CC2)cc1C#Cc1ccccn1` [Compound 253, 1-[4-methoxy-3-(pyridin-2-ylethynyl)benzoyl]-4-[(4-methylphenyl)sulfonyl]piperazine], on rat mGluR5 receptor (rat mGluR5), the pKi is 7.68. The pIC50 at mGluR5 [2] was 6.74.

With `COc1ccc(C(=O)N2CCN(c3nccs3)CC2)cc1C#Cc1ccccn1` [Compound 247, 1-[4-methoxy-3-(pyridin-2-ylethynyl)benzoyl]-4-(1,3-thiazol-2-yl)piperazine], the pKi on rat mGluR5 receptor (rat mGluR5) is 7.77. For the same molecule, the pIC50 at mGluR5 [2] was 7.07.

`COc1ccc(C(=O)N2CCN(c3nccc(C(F)(F)F)n3)CC2)cc1C#Cc1ccccn1` [Compound 194, 2-{4-[4-methoxy-3-(pyridin-2-ylethynyl)benzoyl]piperazin-1-yl}-4-(trifluoromethyl)pyrimidine]: on rat mGluR5 receptor (rat mGluR5), the pKi was 8.40. In addition, on mGluR5 [2], the pIC50 is 7.11.

Consider `COc1ccc(C(=O)N2CCN(c3ccccc3)CC2C)cc1C#Cc1ccccn1` (centres unmarked) [Compound 250, 1-[4-methoxy-3-(pyridin-2-ylethynyl)benzoyl]-2-methyl-4-phenylpiperazine], for which the pKi on rat mGluR5 receptor (rat mGluR5) is 7.62. Moreover, the pIC50 at mGluR5 [2] was 7.02.

Take `COc1ccc(C(=O)N2CCN(c3ccc(Cl)cn3)CC2)cc1C#Cc1ccccn1` [Compound 188, 1-(5-chloropyridin-2-yl)-4-[4-methoxy-3-(pyridin-2-ylethynyl)benzoyl]piperazine]: the pKi at rat mGluR5 receptor (rat mGluR5) was 8.15. The same molecule had a pIC50 at mGluR5 [2] of 7.07.

For `COc1ccc(C(=O)N2C[C@H]3C[C@H]2CN3c2ccc(Cl)cc2)cc1C#Cc1ccccn1` [Compound 199, (1R,4S)-2-(4-chlorophenyl)-5-[4-methoxy-3-(pyridin-2-ylethynyl)benzoyl]-2,5-diazabicyclo[2.2.1]heptane], the pKi at rat mGluR5 receptor (rat mGluR5) was 7.12. At mGluR5 [2], the negative logarithm of the IC50 (pIC50) is < 6.00.

`COc1ccc(C(=O)N2CCN(c3ccc(Cl)nn3)CC2)cc1C#Cc1ccccn1` [Compound 303, 3-chloro-6-{4-[4-methoxy-3-(pyridin-2-ylethynyl)benzoyl]piperazin-1-yl}pyridazine]: the pKi at rat mGluR5 receptor (rat mGluR5) is 7.51. For the same molecule, at mGluR5 [2], the pIC50 is < 6.00.

As to `COc1ccc(C(=O)N2CCN(c3ncc(F)cn3)CC2)cc1C#Cc1ccccn1` [Compound 298, 5-fluoro-2-{4-[4-methoxy-3-(pyridin-2-ylethynyl)benzoyl]piperazin-1-yl}pyrimidine], the pKi on rat mGluR5 receptor (rat mGluR5) was 7.48. The molecule also had a pIC50 at mGluR5 [2] of 6.99.

On to `COc1ccc(C(=O)N2CCN(c3ccc([N+](=O)[O-])cc3)CC2)cc1C#Cc1ccccn1` [Compound 232, 1-[4-methoxy-3-(pyridin-2-ylethynyl)benzoyl]-4-(4-nitrophenyl)piperazine], for which the pKi at rat mGluR5 receptor (rat mGluR5) is 7.02. For the same molecule, at mGluR5 [2], the pIC50 is < 6.00.

Turning to `COc1ccc(N2CCN(C(=O)c3ccc(OC)c(C#Cc4ccccn4)c3)CC2)nn1` [Compound 301, 3-methoxy-6-{4[4-methoxy-3-(pyridin-2-ylethynyl)benzoyl]piperazin-1-yl}pyridazine], at rat mGluR5 receptor (rat mGluR5), the pKi was 7.08. This molecule gave a pIC50 at mGluR5 [2] of 6.69.

Turning to `COc1ccc(C(=O)N2CCN(c3ncc(Br)cn3)CC2)cc1C#Cc1ccccn1` [Compound 262, 5-bromo-2-{4-[4-methoxy-3-(pyridin-2-ylethynyl)benzoyl]piperazin-1-yl}pyrimidine], at rat mGluR5 receptor (rat mGluR5), the pKi was 7.77. Moreover, the pIC50 at mGluR5 [2] was 6.83.

Regarding `COc1ccc(C(=O)N2CCN(Cc3ccc4c(c3)OCO4)CC2)cc1C#Cc1ccccn1` [Compound 259, 1-(1,3-benzodioxol-5-ylmethyl)-4-[4-methoxy-3-(pyridin-2-ylethynyl)benzoyl]piperazine], on rat mGluR5 receptor (rat mGluR5), the pKi was 7.42. At mGluR5 [2], this molecule gave a negative logarithm of the IC50 (pIC50) of 6.80.

As for `COc1ccc(C(=O)N2CCN(C(=O)c3ccc(OC)c(C#Cc4ccccn4)c3)CC2)cc1` [Compound 265, 1-(4-methoxybenzoyl)-4-[4-methoxy-3-(pyridin-2-ylethynyl)benzoyl]piperazine], on rat mGluR5 receptor (rat mGluR5), the pKi was 7.27. Further, on mGluR5 [2], the pIC50 was < 6.00.

For `COc1ccc(C(=O)N2CCN(c3ccc(Cl)cc3)C(=O)C2)cc1C#Cc1ccccn1` [Compound 326, 1-(4-Chlorophenyl)-4-{[4-methoxy-3-(pyridin-2-ylethynyl)phenyl]carbonyl}piperazin-2-one], at rat mGluR5 receptor (rat mGluR5), the pKi is 7.14. The molecule further gave a pIC50 on mGluR5 [2] of 7.54.

For the molecule `Cc1ccc(C(=O)N2CCN(c3noc4ccccc34)CC2)cc1C#Cc1ccccn1` [Compound 307, 3-{4-[4-Methyl-3-(pyridin-2-ylethynyl)benzoyl]piperazin-1-yl}-1,2-benzisoxazole], the pKi at rat mGluR5 receptor (rat mGluR5) is 9.00. Further, the pIC50 on mGluR5 [2] was 7.30.

Regarding `COc1ccc(C(=O)N2CCN(Cc3ccccc3)C(=O)C2)cc1C#Cc1ccccn1` [Compound 331, 1-Benzyl-4-[4-methoxy-3-(pyridin-2-ylethynyl)benzoyl]piperazin-2-one], the pKi at rat mGluR5 receptor (rat mGluR5) is 7.21. The pIC50 at mGluR5 [2] is 7.29.

With `COc1ccc(C(=O)N2CCN(Cc3ccc(Br)cc3F)CC2)cc1C#Cc1ccccn1` [Compound 285, 1-(4-bromo-2-fluorobenzyl)-4-[4-methoxy-3-(pyridin-2-ylethynyl)benzoyl]piperazine], the pKi at rat mGluR5 receptor (rat mGluR5) was 8.15. The pIC50 at mGluR5 [2] is 6.49.

As for `COc1ccc(C(=O)N2CCN(c3ncc(C(F)(F)F)cc3Cl)CC2)cc1C#Cc1ccccn1` [Compound 190, 1-[3-chloro-5-(trifluoromethyl)pyridin-2-yl]-4-[4-methoxy-3-(pyridin-2-ylethynyl)benzoyl]piperazine], at rat mGluR5 receptor (rat mGluR5), the pKi was 6.38. Also, the pIC50 on mGluR5 [2] is 6.39.
